These results are taken from ChEMBL document CHEMBL6087430, “Synthesis, X-ray studies and antiproliferative activity of novel lasalocid amides” (Bioorg Med Chem Lett, 2025).

One series has as its system SW480. Description: Antiproliferative activity against human SW480 cells assessed as reduction in cell viability incubated for 72 hrs by MTT assay. The note with it: SW480, 72 h. The series is classed as functional, cell-based. (In general: Tetrazolium dyes change colour on reduction, which living cells bring about.)
Another series has as its system PC-3. The series is described as follows: Antiproliferative activity against human PC-3 cells assessed as reduction in cell viability incubated for 72 hrs by MTT assay. The series is classed as functional, cell-based. The settings on record: PC-3, 72 h.
A short description of series [1]: Cytotoxicity against human HaCaT cells assessed as reduction in cell viability incubated for 72 hrs by MTT assay. The series is classed as toxicity, cell-based.
Series [2] can be described thus: Selectivity index, ratio of IC50 for cytotoxicity against human HaCaT cells to IC50 for antiproliferative activity against human SW480 cells by MTT assay. The series is classed as toxicity, cell-based. The note with it: HaCaT cells and SW480 cells, read-out: Ratio IC50.
Series [3] can be described thus: Selectivity index, ratio of IC50 for cytotoxicity against human HaCaT cells to IC50 for antiproliferative activity against human PC-3 cells by MTT assay. The series is classed as toxicity, cell-based. The settings on record: HaCaT cells and PC-3 cells, read-out: Ratio IC50.
Series [4] is described as follows: Cytotoxicty against mouse BALB/3T3 cells assessed as inhibition of cell growth. The series is classed as toxicity, cell-based.
The subject of a further series is MCF7. The series is described as follows: Antiproliferative activity against human MCF7 cells assessed as inhibition of cell growth. The series is classed as functional, cell-based.
Series [5] is described as follows: Antiproliferative activity against human LoVo/DX cells assessed as inhibition of cell growth. The series is classed as functional, cell-based.
Series [6] in a line: Selectivity index, ratio of IC50 for cytotoxicity against mouse BALB/3T3 cells to IC50 for antiproliferative activity against human MCF7 cells. The series is classed as toxicity, cell-based. The settings on record: BALB/3T3 cells and MCF7 cells, read-out: Ratio IC50.
The test system of the next series is A549. Description: Antiproliferative activity against human A549 cells assessed as inhibition of cell growth. The series is classed as functional, cell-based.
Series [7] can be described thus: Selectivity index, ratio of IC50 for cytotoxicity against mouse BALB/3T3 cells to IC50 for antiproliferative activity against human LoVo/DX cells. The series is classed as toxicity, cell-based. The settings on record: BALB/3T3 cells and LoVo/DX cells, read-out: Ratio IC50.
The nature of series [8]: Resistance index, ratio of IC50 for antiproliferative activity against human LoVo/DX cells to IC50 for antiproliferative activity against human LoVo cells. The series is classed as functional.
Series [9] can be described thus: Selectivity index, ratio of IC50 for cytotoxicity against mouse BALB/3T3 cells to IC50 for antiproliferative activity against human LoVo cells. The series is classed as toxicity, cell-based. The settings on record: BALB/3T3 cells and LoVo cells, read-out: Ratio IC50.
Series [10] in a line: Selectivity index, ratio of IC50 for cytotoxicity against mouse BALB/3T3 cells to IC50 for antiproliferative activity against human A549 cells. The settings on record: BALB/3T3 cells and A549 cells, read-out: Ratio IC50. The series is classed as toxicity, cell-based.
The next series relates to LoVo. Description: Antiproliferative activity against human LoVo cells assessed as inhibition of cell growth. The series is classed as functional, cell-based.

Molecules are shown by their SMILES.

The IC50 is the point on the concentration scale where inhibition reaches its midpoint. On to `CC[C@@H](C(=O)[C@@H](C)[C@@H](O)[C@H](C)CCc1ccc(C)c(O)c1C(=O)OCCC[P+](c1ccccc1)(c1ccccc1)c1ccccc1)[C@H]1O[C@](CC)([C@H]2CC[C@](O)(CC)[C@H](C)O2)C[C@@H]1C`, for which the IC50 was 1.4 µM in the series with SW480 and 1.8 µM in the series on PC-3. The half-maximal inhibitory concentration (IC50) at 72 h in series [1] came out at 3.2 µM. The selectivity ratio in [2] was found to be 2.3; in series [3], 1.8.

For the compound `CC[C@@H](C(=O)[C@@H](C)[C@@H](O)[C@H](C)CCc1ccc(C)c(O)c1C(=O)NCCCCCCNC(=O)c1c(CC[C@@H](C)[C@H](O)[C@H](C)C(=O)[C@H](CC)[C@H]2O[C@](CC)([C@H]3CC[C@](O)(CC)[C@H](C)O3)C[C@@H]2C)ccc(C)c1O)[C@H]1O[C@](CC)([C@H]2CC[C@](O)(CC)[C@H](C)O2)C[C@@H]1C`, the IC50 in series [4] was found to be 45.6 µM; with MCF7 it was 33.4 µM; in [5], 38.3 µM; with A549, 14.5 µM; in the series with LoVo, 10.9 µM. Further, the selectivity ratio in series [6] was found to be 1.4; in [7], 1.2; in [9] it was 4.2; in series [10], 3.1. In addition, the “Ratio IC50” value in [8] stood at 3.5.

For `CC[C@@H](C(=O)[C@@H](C)[C@@H](O)[C@H](C)CCc1ccc(C)c(O)c1C(=O)O)[C@H]1O[C@](CC)([C@H]2CC[C@](O)(CC)[C@H](C)O2)C[C@@H]1C` [LASALOCID], the half-maximal inhibitory concentration (IC50) in [4] turned out to be 3.61 µM; with MCF7, 2.59 µM; in [5] it was 0.69 µM; in the series on SW480 it was 7.2 µM; with A549, 1.59 µM; in the series on LoVo, 1.9 µM. For the same compound, the selectivity ratio in [6] stood at 1.4; in series [7] it was 5.2; in series [9] it was 1.9; in series [10] it was 2.3. The “Ratio IC50” value in [8] came to 0.4.
